Where a name gives a salt, the structure may show the parent alone.
Experiments:
Assay type in all cases: cell-based
TLR8 [1] = target: T1, TLR8 (Homo sapiens, UniProt Q9NR97); assay: TLR8 activity, MC50 values (procedure only by reference to Gorden et al. and Zhu et al.); conditions: assay format not given
T1 sequence (Q9NR97 27-1041): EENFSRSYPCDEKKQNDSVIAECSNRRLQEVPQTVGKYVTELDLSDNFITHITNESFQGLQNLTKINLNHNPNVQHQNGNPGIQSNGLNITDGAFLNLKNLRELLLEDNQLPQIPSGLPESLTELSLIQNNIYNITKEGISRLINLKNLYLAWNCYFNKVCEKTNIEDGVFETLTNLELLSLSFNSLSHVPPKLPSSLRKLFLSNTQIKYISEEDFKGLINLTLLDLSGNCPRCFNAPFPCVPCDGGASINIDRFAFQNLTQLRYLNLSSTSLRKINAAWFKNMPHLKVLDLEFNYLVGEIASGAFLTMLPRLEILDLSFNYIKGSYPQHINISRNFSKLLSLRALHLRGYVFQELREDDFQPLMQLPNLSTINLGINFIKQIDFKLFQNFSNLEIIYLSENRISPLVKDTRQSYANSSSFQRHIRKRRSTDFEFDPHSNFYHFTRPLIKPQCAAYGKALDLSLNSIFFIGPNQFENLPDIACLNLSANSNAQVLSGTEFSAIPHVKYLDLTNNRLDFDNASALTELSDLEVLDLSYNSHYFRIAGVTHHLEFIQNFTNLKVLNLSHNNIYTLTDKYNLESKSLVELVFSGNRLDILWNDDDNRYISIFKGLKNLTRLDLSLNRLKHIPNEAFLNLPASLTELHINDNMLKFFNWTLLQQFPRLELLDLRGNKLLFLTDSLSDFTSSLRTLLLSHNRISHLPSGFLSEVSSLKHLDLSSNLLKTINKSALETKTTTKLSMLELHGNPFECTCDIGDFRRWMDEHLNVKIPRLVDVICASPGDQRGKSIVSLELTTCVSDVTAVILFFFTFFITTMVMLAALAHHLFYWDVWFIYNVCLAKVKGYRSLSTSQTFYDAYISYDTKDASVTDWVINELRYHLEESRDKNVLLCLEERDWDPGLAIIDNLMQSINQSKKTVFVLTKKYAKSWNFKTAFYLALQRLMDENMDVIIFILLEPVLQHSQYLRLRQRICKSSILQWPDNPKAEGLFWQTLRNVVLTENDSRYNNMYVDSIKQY
Description: (§1) Activity of the compounds can be assessed according to procedures described in, e.g., Gorden et al., Journal of Immunology 177, pp. 8164-8170 (2006) and Zhu et al., Molecular Immunology, vol. 45 (11), pp. 3238-3242 (2008).
MC50 values for TLR8 activity are, for example, as shown below: […]

TLR8 [2] = target: T1, TLR8; assay: PBMC assay for TLR8 (TNFα in supernatants by ELISA); parameters: Peripheral blood mononuclear cells (PBMCs) from human blood were isolated; endogenous in cells; host or cells: human PBMCs; conditions: human PBMCs incubated with compound overnight, MC50 = concentration at which 50% of the maximum induction is seen
Protocol: (§2) Peripheral blood mononuclear cells (PBMCs) from human blood were isolated using BD Vacutainer Cell Preparation Tubes with sodium citrate. Cells were incubated with compound overnight. TLR8 activity was assayed by measuring the amount of TNFα in supernatants by ELISA. TLR7 activity was assayed by measuring the amount of IFNα in supernatants by ELISA (R&D Systems). […] The results of this assay are shown below in Tables 2 and 3.
(§3) MC50 numbers are represented as factors of ten, for example, + indicates an MC50 value of ×10^4, or a value in the tens of thousands of nanomolar (nM range); ++ indicates an MC50 value of ×10^3, or a value in the thousands; +++ indicates an MC50 value of ×10^2, or a value in the hundreds; and ++++ indicates an MC50 value of ×10^1 or 10°, or a value in the tens or ones.

TLR7 [3] = target: T2, TLR7 (Homo sapiens, UniProt Q9NYK1); assay: PBMC assay for TLR7 (IFNα in supernatants by ELISA); parameters: Peripheral blood mononuclear cells (PBMCs) from human blood were isolated; endogenous in cells; host or cells: human PBMCs; conditions: human PBMCs incubated with compound overnight, MC50 = concentration at which 50% of the maximum induction is seen
T2 sequence (Q9NYK1 27-1049): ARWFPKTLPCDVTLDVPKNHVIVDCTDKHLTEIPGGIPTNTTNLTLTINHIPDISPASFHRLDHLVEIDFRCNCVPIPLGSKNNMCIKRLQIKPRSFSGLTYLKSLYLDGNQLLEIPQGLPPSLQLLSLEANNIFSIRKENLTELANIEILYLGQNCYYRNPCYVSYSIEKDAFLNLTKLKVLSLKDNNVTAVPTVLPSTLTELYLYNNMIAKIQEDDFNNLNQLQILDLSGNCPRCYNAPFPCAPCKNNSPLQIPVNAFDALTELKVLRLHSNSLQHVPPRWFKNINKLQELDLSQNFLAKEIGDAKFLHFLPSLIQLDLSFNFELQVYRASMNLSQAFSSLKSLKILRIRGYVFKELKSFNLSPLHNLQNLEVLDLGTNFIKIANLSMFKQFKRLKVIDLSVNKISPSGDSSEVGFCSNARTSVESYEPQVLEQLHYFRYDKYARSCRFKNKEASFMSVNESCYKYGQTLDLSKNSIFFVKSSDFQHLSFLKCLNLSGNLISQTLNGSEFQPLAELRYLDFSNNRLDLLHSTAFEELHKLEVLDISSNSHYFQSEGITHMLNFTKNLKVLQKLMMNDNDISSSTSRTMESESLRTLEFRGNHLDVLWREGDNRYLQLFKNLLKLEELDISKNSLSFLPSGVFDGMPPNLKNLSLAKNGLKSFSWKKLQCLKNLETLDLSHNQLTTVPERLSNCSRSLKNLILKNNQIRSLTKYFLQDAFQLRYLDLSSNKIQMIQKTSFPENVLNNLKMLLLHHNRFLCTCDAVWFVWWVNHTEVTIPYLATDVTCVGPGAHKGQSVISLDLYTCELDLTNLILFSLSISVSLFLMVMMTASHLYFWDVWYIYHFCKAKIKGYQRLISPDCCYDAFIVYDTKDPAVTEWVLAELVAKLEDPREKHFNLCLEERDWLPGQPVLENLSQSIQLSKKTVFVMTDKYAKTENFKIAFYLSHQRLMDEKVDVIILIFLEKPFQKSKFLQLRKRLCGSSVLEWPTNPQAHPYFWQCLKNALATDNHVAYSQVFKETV
Protocol: as §2, §3

TLR7 [4] = target: T2, TLR7; assay: TLR7 activity, MC50 values (procedure only by reference to Gorden et al. and Zhu et al.); conditions: assay format not given
Description: as §1
MC50 values for TLR7 activity are, for example, as shown below: […]

## CCCN(CCCO)C(=O)C1=Cc2ccc(-c3ccc(C(=O)OCC)cc3)cc2N=C(N)C1 [Compound 190, Ethyl 4-((1E,4E)-2-amino-4-((3-hydroxypropyl)(propyl)carbamoyl)-3H-benzo[b]azepin-8-yl)benzoate]
TLR8 [1]
  EC50: 0.196 µM
TLR8 [2]
  EC50: 0.1 to 1 µM
TLR7 [3]
  EC50: 10 to 100 µM

## CCCN(CC(N)=O)C(=O)C1=Cc2ccc(-c3ccc(C(=O)N4CCCC4)cc3)cc2N=C(N)C1 [Compound 178, (1E,4E)-2-amino-N-(2-amino-2-oxoethyl)-N-propyl-8-(4-(pyrrolidine-1-carbonyl)phenyl)-3H-benzo[b]azepine-4-carboxamide]
TLR7 [4]
  EC50: 0.767 µM
TLR8 [2]
  EC50: 0.1 to 1 µM
TLR7 [3]
  EC50: 0.1 to 1 µM

## CCCN(CCC)C(=O)C1=Cc2ccc(-c3ccc(C(=O)N(C)C)cc3)cc2N=C(N)C1 [Compound 124, (1E,4E)-2-amino-8-(4-(dimethylcarbamoyl)phenyl)-N,N-dipropyl-3H-benzo[b]azepine-4-carboxamide]
TLR8 [1]
  EC50: 0.104 µM
TLR8 [2]
  EC50: 0.1 to 1 µM
TLR7 [3]
  EC50: 1 to 10 µM

## CCOC(=O)C1=Cc2ccc(-c3ccncc3)cc2N=C(N)C1 [Compound 143, (1E,4E)-ethyl 2-amino-8-(pyridin-4-yl)-3H-benzo[b]azepine-4-carboxylate]
TLR8 [1]
  EC50: 0.045 µM
TLR8 [2]
  EC50: 0.001 to 0.1 µM

## CCOC(=O)C1=Cc2ccc(-c3ccc(C(=O)N(C)C)cc3)cc2N=C(N)C1 [Compound 154, (1E,4E)-ethyl 2-amino-8-(4-(dimethylcarbamoyl)phenyl)-3H-benzo[b]azepine-4-carboxylate]
TLR8 [1]
  EC50: 0.116 µM
TLR8 [2]
  EC50: 0.1 to 1 µM

## CCCN(C[C@@H](C)O)C(=O)C1=Cc2ccc(-c3ccc(C(=O)N4CCCC4)cc3)cc2N=C(N)C1 (single isomer, unassigned) [Compound 106]
TLR8 [1]
  EC50: 0.01 µM
TLR8 [2]
  EC50: 0.001 to 0.1 µM
TLR7 [3]
  EC50: 1 to 10 µM

## CCCN(Cc1ccccc1O)C(=O)C1=Cc2ccc(-c3ccc(C(=O)N4CCCC4)cc3)cc2N=C(N)C1 [Compound 174, (1E,4E)-2-amino-N-(2-hydroxybenzyl)-N-propyl-8-(4-(pyrrolidine-1-carbonyl)phenyl)-3H-benzo[b]azepine-4-carboxamide hydrochloride]
TLR8 [2]
  EC50: 0.1 to 1 µM
TLR7 [3]
  EC50: 1 to 10 µM

## NC1=Nc2cc(-c3ccc(C(=O)N4CCCC4)cc3)ccc2C=C(C(=O)N2C[C@@H](O)[C@H](O)C2)C1 [Compound 112, (4-((1E,4E)-2-amino-4-((3R,4R)-3,4-dihydroxypyrrolidine-1-carbonyl)-3H-benzo[b]azepin-8-yl)phenyl)(pyrrolidin-1-yl)methanone]
TLR8 [2]
  EC50: 1 to 10 µM
TLR7 [3]
  EC50: 10 to 100 µM

## CCCN(CCC)C(=O)C1=Cc2ccc(-c3ccc(C(=O)OCOCC)cc3)cc2N=C(N)C1 [Compound 207, Ethoxymethyl 4-((1E,4E)-2-amino-4-(dipropylcarbamoyl)-3H-benzo[b]azepin-8-yl)benzoate]
TLR8 [2]
  EC50: 1 to 10 µM
TLR7 [3]
  EC50: 1 to 10 µM

## CCCN(CCC)C(=O)C1=Cc2ccc(-c3ccccc3C(=O)OCC)cc2N=C(N)C1 [Compound 203, Ethyl 2-((1E,4E)-2-amino-4-(dipropylcarbamoyl)-3H-benzo[b]azepin-8-yl)benzoate]
TLR8 [2]
  EC50: 0.1 to 1 µM
TLR7 [3]
  EC50: 1 to 10 µM

## CCOC(=O)C1=Cc2ccc(-c3cccnc3)cc2N=C(N)C1 [Compound 142, (1E,4E)-ethyl 2-amino-8-(pyridin-3-yl)-3H-benzo[b]azepine-4-carboxylate]
TLR8 [2]
  EC50: 0.001 to 0.1 µM
TLR7 [3]
  EC50: 1 to 10 µM

## CCCN(CCC)C(=O)C1=Cc2ccc(-c3ccc(C#N)cc3)cc2N=C(N)C1 [Compound 137, (1E,4E)-2-amino-8-(4-cyanophenyl)-N,N-dipropyl-3H-benzo[b]azepine-4-carboxamide]
TLR8 [2]
  EC50: 0.001 to 0.1 µM
TLR7 [3]
  EC50: 10 to 100 µM

## CCCN(CCC)C(=O)C1=Cc2ccc(-c3ccc(C(=O)N4CC[C@@H](O)C4)cc3)cc2N=C(N)C1 [Compound 127, (1E,4E)-2-amino-8-(4-((R)-3-hydroxypyrrolidine-1-carbonyl)phenyl)-N,N-dipropyl-3H-benzo[b]azepine-4-carboxamide]
TLR8 [1]
  EC50: 0.004 µM
TLR8 [2]
  EC50: 0.001 to 0.1 µM
TLR7 [3]
  EC50: 1 to 10 µM

## CCOC(=O)C1=Cc2ccc(-c3cncnc3)cc2N=C(N)C1 [Compound 144, (1E,4E)-ethyl 2-amino-8-(pyrimidin-5-yl)-3H-benzo[b]azepine-4-carboxylate]
TLR8 [2]
  EC50: 0.001 to 0.1 µM
TLR7 [3]
  EC50: 1 to 10 µM

## CCCN(C[C@H](C)O)C(=O)C1=Cc2ccc(-c3ccc(C(=O)N4CCCC4)cc3)cc2N=C(N)C1 (single isomer, unassigned) [Compound 105]
TLR8 [2]
  EC50: 0.001 to 0.1 µM
TLR7 [3]
  EC50: 1 to 10 µM

## CCCN(CC(C)(C)O)C(=O)C1=Cc2ccc(-c3ccc(C(=O)N4CCCC4)cc3)cc2N=C(N)C1 [Compound 117, (1E,4E)-2-amino-N-(2-hydroxy-2-methylpropyl)-N-propyl-8-(4-(pyrrolidine-1-carbonyl)phenyl)-3H-benzo[b]azepine-4-carboxamide]
TLR8 [2]
  EC50: 0.1 to 1 µM
TLR7 [3]
  EC50: 10 to 100 µM

## CCCN(CCC)C(=O)C1=Cc2ccc(-c3ccncc3)cc2N=C(N)C1 [Compound 134, (1E,4E)-2-amino-N,N-dipropyl-8-(pyridin-4-yl)-3H-benzo[b]azepine-4-carboxamide]
TLR8 [2]
  EC50: 0.1 to 1 µM
TLR7 [3]
  EC50: 1 to 10 µM

## CCCN(CCC)C(=O)C1=Cc2ccc(-c3ccc(C(=O)OCC)c(F)c3)cc2N=C(N)C1 [Compound 210, Ethyl 4-((1E,4E)-2-amino-4-(dipropylcarbamoyl)-3H-benzo[b]azepin-8-yl)-2-fluorobenzoate]
TLR8 [2]
  EC50: 0.1 to 1 µM
TLR7 [3]
  EC50: 1 to 10 µM

## CCCN(CCC)C(=O)C1=Cc2ccc(-c3cncnc3)cc2N=C(N)C1 [Compound 135, (1E,4E)-2-amino-N,N-dipropyl-8-(pyrimidin-5-yl)-3H-benzo[b]azepine-4-carboxamide]
TLR7 [4]
  EC50: 0.744 µM
TLR8 [2]
  EC50: 0.001 to 0.1 µM
TLR7 [3]
  EC50: 0.1 to 1 µM

From patent publication US8524702B2, “Substituted benzoazepines as toll-like receptor modulators” (VentiRx Pharmaceuticals, Inc., priority 2009, dated 2013)
